SMILES strings stand for the structures. Marks after values point to notes of the source that are not given here.

The values that follow come from patent publication US12484574B2, “Agent for promoting undifferentiation and cryoprotective agent using aprotic zwitterion” (JAPAN SCIENCE AND TECHNOLOGY AGENCY, priority 2019, dated 2025).

Series [1] can be described thus: Glass transition temperature and heat quantity by differential scanning calorimetry (DSC). It counts as physicochemical. Conditions: 10 wt % in purified water, cooling −1° C./min, heating 5° C./min. The procedure:
The glass transition temperature and the heat quantity were determined by differential scanning calorimetry (DSC). The measurement was performed with a cooling rate set to −1° C./min an d a heating rate set to 5° C./min.
In general terms: In DSC, transitions show as peaks or steps in heat flow.

For series [2], the system named is human fibroblasts. Description: Influence on cell cycle (Click-iT Plus EdU cell proliferation assay). It is filed as cell-based. Conditions: 2% addition; compared with no addition; FIG. 11. How it is done:
The cells used were human fibroblasts.
The test groups were 1% addition groups and 2% addition groups of DMSO and HLS (OE2imC3C) vs. a control.
Cell cycle analysis was conducted using Click-iT® Plus EdU cell proliferation assay (Thermo Fisher Scientific Inc.) containing 5-ethynyl-2′-deoxyuridine (EdU) according to the manufacturer's protocol. The cells were incubated in 10 μM EdU for 1 hour, treated with trypsin, then fixed in 4% PFA, and labeled with Alexa Fluor 647 picolyl azide. The cells were stained with 4′,6-diamidino-2-phenylindole (DAPI) and analyzed with BD FACSAria™ III (BD Biosciences).

Series [3] concerns Wild-type zebrafish AB*. Description: Influence on development of zebrafish. It counts as in vivo. Conditions: for Survival rate: fertilized eggs cultured 1.5 to 24 hours. How it is done: All experiments were conducted based on a protocol approved by the animal experiment committee of Kanazawa University. Wild-type zebrafish AB* was raised at 28.5° C. with 14-hour light/10-hour dark cycles in a circulating water system. The medium used was E3 medium (5 mM NaCl, 0.17 mM KCl, 0.33 mM CaCl2, 0.33 mM MgSO4). The medium was supplemented with 1%, 2%, 5% or 10% DMSO or HLS (OE2imC3C). For each test group, eggs were fertilized and then cultured for 1.5 to 24 hours. The embryos thus cultured were washed with E3 medium twice and treated with 1-phenyl-2-thiourea (FUJIFILM Wako Pure Chemical Corp.) in order to prevent pigmentation. The embryos were stained with 0.6 mg/mL o-dianisidine (Tokyo Chemical Industry Co., Ltd.) for 15 minutes and fixed in 4% paraformaldehyde (FUJIFILM Wako Pure Chemical Corp.). The embryos were washed with phosphate-buffered saline containing 0.1% Tween (Sigma-Aldrich Co. LLC) twice. The survival rate was similar between DMSO and HLS (OE2imC3C) up to the 2% addition groups, whereas the survival rate differed largely therebetween in the 5% addition groups.

The subject of series [4] is Human renal cell. Description: Cell freezing experiment 4 (slow freezing), viable cell count as ratio to OE2imC3C. It is filed as cell-based. Conditions: −80° C., −1° C./min. The procedure:
(§1) As for the cryopreservation solution, the aprotic zwitterion of each example was dissolved by the addition of purified water to prepare test solutions containing 5% by weight and 10% by weight of the aprotic zwitterion.
(§2) The cells to be frozen were centrifugally recovered by trypsin treatment and diluted with Dulbecco's modified Eagle medium (DMEM), and each cell concentration was measured. The types and cell concentrations of the cells are as follows. • Mouse skin fibroblasts 5.0×10^5 cells/100 μl • Human renal fat cells 5.0×10^5 cells/100 μl
(§3) Subsequently, the cells of each type were dispensed at 1 ml/tube to 1.5 ml tubes, centrifuged, suspended in 100 μl each of the cryopreservation solutions described above, and frozen at a cooling temperature of −80° C. at a cooling rate of −1° C./min using a cell freezing container Mr. Frosty®.
(§4) 1 ml of a medium was added to the cryopreservation vial for thawing, and a supernatant was removed by centrifugation. Subsequently, the cells obtained by centrifugation were resuspended in a medium, followed by the measurement of a viable cell count. The results are indicated by a ratio to the viable cell count of OE2imC3C.

The test system of series [5] is Mouse skin fibroblast. The series is described as above. It is filed as cell-based. Particulars: −80° C., −1° C./min. How it is done: as §1, §2, §3, §4

As for `C=CCn1cc[n+](CCCC(=O)[O-])c1` [AimC3C], in series [1], the Heat quantity is -188.37 J/g and the Tg was −85 °C.

As for `C=CCn1cc[n+](CCCS(=O)(=O)[O-])c1` [AimC3S], in series [1], the Heat quantity is -213.16 J/g and the Tg was −85.76 °C.

As for `C=CCn1cc[n+](CCCCS(=O)(=O)[O-])c1` [AimC4S], in series [1], the Heat quantity is -210.34 J/g and the Tg was −86.07 °C.

On to `C[S+](C)[O-]` [DMSO, dimethyl sulfoxide], for which the “influence on cell cycle (G0/G1 phase, S phase)” value in series [2] is “prolonged the G0/G1 phase and drastically shortened the S phase”. The “development of surviving fertilized eggs (abnormality)” value in series [3] (5 % v/v in E3 medium) is reported as “did not normally develop”. For the same compound, the Survival rate was 27/27 in series [3] (Concentration 1 % (v/v for DMSO, w/v for HLS) in E3 medium); 27/27 in series [3] (Concentration 2 % (v/v for DMSO, w/v for HLS) in E3 medium); 4/27* in series [3] (Concentration 5 % (v/v for DMSO, w/v for HLS) in E3 medium); 0/27 in series [3] (Concentration 10 % (v/v for DMSO, w/v for HLS) in E3 medium).

In the case of `Cn1cc[n+](CCCC(=O)[O-])c1` [Example C1imC3C], in series [1], the Heat quantity is -199.61 J/g and the Tg was −95.22 °C.

Take `Cn1cc[n+](CCCS(=O)(=O)[O-])c1` [Example C1imC3S]: in series [1], the Heat quantity is -173.36 J/g and the Tg was −88.88 °C.

For `C[n+]1ccn(CCCCCC(=O)[O-])c1` [Example C1imC5C], the Heat quantity in series [1] was -169.61 J/g. Besides, the Tg in series [1] was −84.51 °C. The “viable cell count, ratio to the viable cell count of OE2imC3C” value (shortened to “viable cell count, ratio”) in series [4] (5 wt % in purified water) was determined as 1.94; in series [4] (10 wt % in purified water) it was 0.72; in series [5] (5 wt % in purified water), 0.82; in series [5] (10 wt % in purified water), 1.09.

In the case of `CCCCn1cc[n+](CCCC(=O)[O-])c1` [Example C4imC3C], in series [1], the Heat quantity was -198.66 J/g and the Tg is −75.3 °C.

Turning to `CCCCn1cc[n+](CCCCCC(=O)[O-])c1` [Example C4imC5C], in series [1], the Heat quantity is -183.73 J/g and the Tg was −74.59 °C.

With `CCCCCCCCn1cc[n+](CCCC(=O)[O-])c1` [Example C8imC3C], in series [1], the Heat quantity was -187.42 J/g and the Tg is −84.05 °C.

`CCCCCCCC[n+]1ccn(CCCS(=O)(=O)[O-])c1` [Example C8imC3S]: the “viable cell count, ratio” value in series [4] (5 wt % in purified water) stood at 0.00; in series [4] (10 wt % in purified water), 0.33; in series [5] (5 wt % in purified water) it was 0.00; in series [5] (10 wt % in purified water), 0.04.

For the compound `CCCCCCCCCCCCCC[N+](C)(C)CCCC(=O)[O-]` [N1,1,14C3C], the Heat quantity in series [1] was -182.67 J/g. Moreover, in series [1], the Tg is −74.96 °C. The “viable cell count, ratio” value is 0.59 in series [4] (5 wt % in purified water), 0.56 in series [4] (10 wt % in purified water), 0.58 in series [5] (5 wt % in purified water) and 0.77 in series [5] (10 wt % in purified water).

As for `COCCn1cc[n+](CCCC(=O)[O-])c1` [OE1imC3C], in series [1], the Heat quantity was -188.49 J/g and the Tg is −86.07 °C.

Take `COCCOCCn1cc[n+](CCCS(=O)(=O)[O-])c1` [OE2imC3S]: in series [1], the Heat quantity was -190.84 J/g and the Tg is −85.48 °C.

For `COCCOCCn1cc[n+](CCCCCC(=O)[O-])c1` [OE2imC5C], in series [1], the Heat quantity is -190.82 J/g and the Tg is −83.34 °C.

For `O=C([O-])CCC[n+]1ccccc1` [PyC3C], in series [1], the Heat quantity is -182.59 J/g and the Tg is −90.35 °C.

Consider `C[N+]1(CCCC(=O)[O-])CCCC1` [PyrrC3C], for which, in series [1], the Heat quantity was -188.06 J/g and the Tg was −91.85 °C.

Consider `C=Cn1cc[n+](CCCC(=O)[O-])c1` [VimC3C], for which, in series [1], the Heat quantity is -182.17 J/g and the Tg was −85.74 °C.

On to `C=Cn1cc[n+](CCCS(=O)(=O)[O-])c1` [VimC3S], for which, in series [1], the Heat quantity is -170.72 J/g and the Tg is −81.06 °C.
